The target of the assay is human σ2 receptor (TMEM97) (Homo sapiens, UniProt Q5BJF2). Kind of assay: biochemical. Format: Expi293 membranes. Particulars: read-out: % of control remaining.
human σ2 receptor (TMEM97), sequence (Q5BJF2 whole entry): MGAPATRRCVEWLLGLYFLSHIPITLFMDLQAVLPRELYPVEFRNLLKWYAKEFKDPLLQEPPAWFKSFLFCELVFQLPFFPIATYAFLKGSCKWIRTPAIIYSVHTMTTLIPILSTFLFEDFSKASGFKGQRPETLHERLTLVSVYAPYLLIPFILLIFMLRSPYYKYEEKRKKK

For the compound `CC(C)CN1CCC(NC(=O)NNC(=O)C(=O)NC2CC2)CC1` [ZINC000045463977], the remaining activity at 1 µM stood at 107%.

For the compound `CCCn1c(C)cc(/C=C(/C#N)C(=O)NCCN(C)Cc2ccccc2)c1C` [ZINC000064804934], the remaining activity at 1 µM stood at 85%.

As to `CC[C@@H](C)NC(=O)[C@@H](C)N1CCC(c2c[nH]c3ccccc23)CC1` [ZINC000073649189], the remaining activity at 1 µM turned out to be 74.2%.

As to `C[C@H](C(=O)NCc1cc(Br)cs1)N1CCCCCC1` [ZINC000074484650], the remaining activity at 1 µM is 86.9%.

On to `c1cncc(-c2nc(N3CCC[C@H](N4CCCC4)C3)c3ccccc3n2)c1` [ZINC000076836015], for which the remaining activity at 1 µM amounted to 60.5%.

In the case of `Cc1noc(-c2cccnc2NC2CCC(N3CCCCC3)CC2)n1` (stereo not drawn) [ZINC000080247921], the remaining activity at 1 µM amounted to 24.7%.

As for `c1ccc(-c2csc(CN3CCC4(C3)OCCO4)c2)cc1` [ZINC000093013680], the remaining activity at 1 µM worked out at 89.6%.

Turning to `CC1CCC(N2CCN(CCOC(C)C)CC2)CC1` (stereo not drawn) [ZINC000115566238], the remaining activity at 1 µM worked out at 18.2%.

As for `O=C(Nc1cccc(OC(F)(F)F)c1)C(=O)N1CCC[C@@H](N2CCCC2)CC1` [ZINC000120571916], the remaining activity at 1 µM was 17.7%.

Take `N#Cc1csc(CN2CCC[C@H]2Cc2ccccc2)c1` [ZINC000124982852]: the remaining activity at 1 µM came to 89.7%.

For the compound `COc1ccccc1O[C@H](C)CN[C@@H](C)c1ccccc1OC` [ZINC000129576345], the remaining activity at 1 µM amounted to 14.2%.

Turning to `CN1CCN(c2ncc(CN3CCN(CC4CC4)CC3)cn2)CC1` [ZINC000130668661], the remaining activity at 1 µM came out at 68.6%.

In the case of `C[C@H](Cn1cc(Br)cn1)NCc1cn2cc(Cl)ccc2n1` [ZINC000131571127], the remaining activity at 1 µM is 76.6%.

On to `CN(C(=O)C[C@@H]1CSCCN1)[C@@H]1CCCN(c2cccnn2)C1` [ZINC000133744458], for which the remaining activity at 1 µM was 65.7%.

As for `C[C@@H](Cn1cc(Br)cn1)NCCOc1ccc2c(c1)OCO2` [ZINC000133991118], the remaining activity at 1 µM amounted to 65.4%.

Turning to `O=C(CCc1cc(Br)ccc1F)N1CC[C@@H](CN2CCCC2)C1` [ZINC000135482356], the remaining activity at 1 µM was determined as 21.7%.

For the compound `O=C(NCc1ccc(F)cc1C(F)(F)F)[C@@H]1CC12CCNCC2` [ZINC000136880129], the remaining activity at 1 µM came out at 53.9%.

With `COC(=O)[C@@H](C)CS(=O)(=O)N[C@@H]1CCN(CC2CCCC2)C1` [ZINC000152090354], the remaining activity at 1 µM is 44.7%.

Turning to `O=C(CN1CC[C@]2(CCOC2)C1)N[C@@H](Cc1ccccc1)c1ccccc1` [ZINC000153400973], the remaining activity at 1 µM amounted to 99.4%.

With `Cc1cc(C(C)(C)C)ccc1OC[C@@H](O)CN1CC[C@]2(CCOC2)C1` [ZINC000153451054], the remaining activity at 1 µM was 17.2%.

As for `C[C@H](N[C@@H](C)CN1CCN(C)CC1)c1ccc(-c2ccccc2)o1` [ZINC000155112667], the remaining activity at 1 µM was 33.8%.

With `CS[C@@H]1CCC[C@H](NC(=O)NC2CCN([C@@H]3CCCC[C@@H]3O)CC2)C1` [ZINC000155998528], the remaining activity at 1 µM turned out to be 30.9%.

For the compound `C[C@H]1C[C@@H](NC(=O)C(=O)Nc2cnn(CC(F)F)c2)CN1C1CC1` [ZINC000158577469], the remaining activity at 1 µM stood at 111%.

Turning to `CC(C)[C@H](C(=O)NC[C@H](C[C@@H](C)O)c1ccccc1)N1CCCCC1` [ZINC000159130997], the remaining activity at 1 µM amounted to 108%.

For the compound `FC(F)(F)c1ccc(-c2nc(CN3CC[C@H](N4CCCC4)C3)cs2)cc1` [ZINC000170742095], the remaining activity at 1 µM amounted to 29.7%.

Take `O=C(Nc1ccc2ncsc2c1)C(=O)N1CCCN(C2CCCC2)CC1` [ZINC000172648663]: the remaining activity at 1 µM was found to be 96.3%.

Turning to `COC(=O)[C@@H](NCC[C@H](C)N(C)Cc1ccccc1)c1cccc(C#N)c1` [ZINC000176805277], the remaining activity at 1 µM is 41.6%.

Take `C[C@H](c1ccccn1)N1CC=C(c2ccc(O)cc2)CC1` [ZINC000176995469]: the remaining activity at 1 µM was 61.4%.

As to `O=C1Nc2ccccc2C12CCC(NCC1(O)CCOCC1)CC2` (stereo not drawn) [ZINC000178638284], the remaining activity at 1 µM is 111%.

Consider `CCN(CC)[C@H]1CCN(Cc2ncc(Cl)cc2Cl)C1` [ZINC000182372239], for which the remaining activity at 1 µM was determined as 34.6%.

Take `C[C@H](CCNC(=O)N1CCO[C@H]([C@@H]2CCCO2)C1)N1CCCCC1` [ZINC000182663590]: the remaining activity at 1 µM turned out to be 98%.

Regarding `Cc1ccc([N+](=O)[O-])cc1[C@H](C)N1C[C@H]2CCC[C@@H]2C1` [ZINC000182842742], the remaining activity at 1 µM was found to be 36.1%.

On to `N#Cc1ccccc1NC(=O)CCN1CCC(O)(c2c(F)cccc2F)CC1` [ZINC000186482223], for which the remaining activity at 1 µM was found to be 95.3%.

Take `C[C@H](Cn1ncc2ccccc2c1=O)N[C@H]1CC[C@H](Cc2ccccc2)C1` [ZINC000188287346]: the remaining activity at 1 µM was found to be 0.9%.

For `O=C(NCCc1ccc(F)c(Br)c1)[C@H]1C[C@H](F)CN1` [ZINC000188412270], the remaining activity at 1 µM worked out at 106%.

For the compound `O=C1Nc2ccccc2CC[C@H]1N1CC[C@@H](COCc2ccccc2)C1` [ZINC000192043753], the remaining activity at 1 µM is 52.9%.

As to `COc1ccc2ccccc2c1-c1cc(CN2CCN(C[C@@H](C)O)C[C@H]2C)on1` [ZINC000192810020], the remaining activity at 1 µM amounted to 89%.

Regarding `CC(C)(C)N1CCC(NC(=O)c2ncccc2Br)CC1` [ZINC000194878845], the remaining activity at 1 µM was 109%.

For `Cc1ccccc1NC(=O)CN1CCC[C@@H]1C[C@H](C)O` [ZINC000228149300], the remaining activity at 1 µM was 113%.

`N[C@@H](CC(=O)Nc1cccc(C(=O)N2CCCC2)c1)c1ccccc1` [ZINC000237909071]: the remaining activity at 1 µM stood at 89%.

Regarding `C[C@@H]1CCCN1CC(=O)NCC(=O)N[C@H](C)c1ccc(F)cc1` [ZINC000245453841], the remaining activity at 1 µM was 114%.

Regarding `CC[C@H](C)CNC[C@H]1CCC[C@H]1NS(C)(=O)=O` [ZINC000245533477], the remaining activity at 1 µM was found to be 98.5%.

With `CCN(C[C@@H]1CCN(Cc2ccccc2)C1)C(=O)[C@H]1CC(=O)N(C2CCCC2)C1` [ZINC000246894550], the remaining activity at 1 µM stood at 72.6%.

For the compound `COC(=O)C[C@H]1CCCN1C[C@@H](O)Cc1ccc(C(F)(F)F)cc1` [ZINC000247001079], the remaining activity at 1 µM was 61.2%.

In the case of `O=C1[C@H](N2C[C@@H]3CCC[C@H]3C2)CCN1c1ccccc1Cl` [ZINC000247015101], the remaining activity at 1 µM worked out at 73%.

For `CN1CCC[C@@H]2CN(Cn3ccc(-c4ccc(Br)cc4)n3)CC[C@H]21` [ZINC000247147334], the remaining activity at 1 µM turned out to be 104%.

As for `CN(C[C@@H](O)CCc1ccccc1)[C@H]1CCN(c2ccccc2F)C1=O` [ZINC000248559983], the remaining activity at 1 µM was 87.4%.

Turning to `C[C@H]1CCN(CC#Cc2cccc(Cl)c2)[C@H]1CO` [ZINC000248917461], the remaining activity at 1 µM worked out at 103%.

For the compound `O[C@]1(CN[C@@H]2CC[C@@H](Cc3ccccc3)C2)CCSC1` [ZINC000249076038], the remaining activity at 1 µM turned out to be 30.5%.

With `C[C@H]1CN/C(=N/Cc2cccc(OCc3ccccc3)c2)N1` [ZINC000261552362], the remaining activity at 1 µM was determined as 56.1%.

For the compound `C=CCOCC(=O)N(CCN)CCc1ccccc1` [ZINC000261774189], the remaining activity at 1 µM stood at 108%.

As for `COc1ccc(Br)cc1C/N=C1/NC[C@@H](C)N1` [ZINC000262658947], the remaining activity at 1 µM is 45.4%.

Regarding `C=C(C)CN/C(N)=N/[C@H]1C[C@H](c2cccc(F)c2)C1` [ZINC000262856881], the remaining activity at 1 µM stood at 6.4%.

As to `Cc1ccc(NC(=O)CN2CCC[C@@H](C3OCCO3)C2)cc1Cl` [ZINC000263644082], the remaining activity at 1 µM was 83.4%.

For the compound `COC1CCC(N(C)CC(=O)Nc2ccc3ccccc3c2)CC1` (stereo not drawn) [ZINC000265181994], the remaining activity at 1 µM was found to be 102%.

`Cc1cccnc1[C@H](NC(=O)N1CCN(C2CCC2)CC1)C(C)C` [ZINC000265281429]: the remaining activity at 1 µM amounted to 97.5%.

With `N/C(=N\Cc1cccc2c1OCCCO2)NC1CCCC1` [ZINC000269280100], the remaining activity at 1 µM is 11.1%.

As to `COCC1(O)CCN(C[C@@H](O)Cn2cnc3cc(C)c(C)cc32)CC1` [ZINC000270395954], the remaining activity at 1 µM is 121%.

Turning to `CCCN(C)C[C@H]1CCN([C@H](C)C(=O)c2c[nH]c3ncccc23)C1` [ZINC000271284821], the remaining activity at 1 µM came out at 28.3%.

As to `Cc1c(Br)cccc1C(=O)N1CC[C@@H]2CCN(C)C[C@H]21` [ZINC000272592294], the remaining activity at 1 µM is 79.1%.

Turning to `CN1CCC(C)(CNC(=O)Nc2ccc(Br)nc2)CC1` [ZINC000272631760], the remaining activity at 1 µM was determined as 91.2%.

Turning to `CC[C@@]1(C)Oc2ccc(NC(=O)C(=O)NC[C@@H]3CCN(C)C3)cc2O1` [ZINC000276781830], the remaining activity at 1 µM turned out to be 97.6%.

On to `COCCOc1ccc(NC(=O)C(=O)N2C[C@H]3CN(C)C[C@H]3C2)cn1` [ZINC000279187431], for which the remaining activity at 1 µM is 105%.

`Cc1noc(C)c1CNC(=O)C(=O)N1CCN(C2CCCC2)CC1` [ZINC000283462313]: the remaining activity at 1 µM is 98.5%.

On to `COc1ccc(-c2ccccc2)cc1CNCCC1(O)CCOCC1` [ZINC000285662957], for which the remaining activity at 1 µM was 17.5%.

With `CCc1cccc(C)c1NC(=O)CN1C[C@@H](N2CCCC2)C[C@H]1C` [ZINC000285725404], the remaining activity at 1 µM came out at 115%.

`CNC(=O)CC[C@H]1CCCCN1Cc1cc(-c2ccccc2)on1` [ZINC000286502332]: the remaining activity at 1 µM was found to be 139%.

Take `COC(=O)c1cccc(S(=O)(=O)N2CC[C@@H](N3CCCC3)[C@@H]2C)c1` [ZINC000286616311]: the remaining activity at 1 µM turned out to be 75%.

As for `CCc1nn(C)c(Cl)c1C(=O)N1CC[C@@H](N2CCNCC2)C1` [ZINC000286782676], the remaining activity at 1 µM worked out at 132%.

`Cc1c(CNC(=O)C(=O)N2CC[C@@H](C3CCN(C)CC3)C2)cnn1C` [ZINC000287105318]: the remaining activity at 1 µM turned out to be 117%.

Take `O[C@H]1c2ccccc2C[C@H]1N1Cc2cccc(Cl)c2C1` [ZINC000287374567]: the remaining activity at 1 µM came to 114%.

Take `COC(=O)C[C@H]1CCCN1C[C@@H](O)Cc1cccc(Cl)c1` [ZINC000287581634]: the remaining activity at 1 µM stood at 111%.

Values taken from publication doi:10.1101/2021.04.29.441652v1 (biorxiv, 2021).
